Assay results published in paper PMC9916883, “Betaine- and L-Carnitine-Based Ionic Liquids as Solubilising and Stabilising Agents for the Formulation of Antimicrobial Eye Drops Containing Diacerein” (International Journal of Molecular Sciences, 2023).
Converted amounts (≈) assume the structure as drawn.

How the values were obtained:
[1] = Stabilisation of DIA against hydrolysis to Rhe under simulated physiological conditions; format: physicochemical; settings: pH 7.4, 37 °C; for degradation of DIA / DIA degraded: 6 h
Description: The stabilising effect of Bet6 and Carn6 on DIA’s hydrolysis was investigated under simulated in vitro conditions. […] After equilibrating for 30 min at 25 °C, the samples were transferred to a thermostatic shaking bath at 37 °C, and their pH was rapidly brought to 7.4 by adding 10 N NaOH. At defined time intervals (30 min, 1 h, 2 h, 3 h, 4 h, 5 h, and 6 h), a 500 µL sampling was performed, and the hydrolysis was blocked by adding 2 µL of 37% HCl, bringing the pH back to 5. The amount of Rhe formed over time was evaluated spectrophotometrically. Degradation of DIA was expressed in mol% of Rhe formation. The stabilising capability was compared to that obtained with HP-β-CD by applying the protocol to DIA/HP-β-CD solutions in CB, with molar ratios of 1:3, 1:5, and 1:10.

[2] = tested on: BALB/3T3 clone A31 fibroblast cells; experiment: Cytotoxicity screening (WST-1); format: cell-based, murine; settings: Mus musculus, 4 h incubation, read-out: IC50 of cell viability
Description: BALB/3T3 clone A31 fibroblast cells were grown in Dulbecco’s Modified Eagle Medium (DMEM), supplemented with 2 mM L-glutamine, 1% penicillin/streptomycin, and 10% bovine calf serum. Cells were grown in a CO2 incubator (Heracell 150i series) at 37 °C and 5% CO2, with cells sub-cultured at 80–90% confluency. The cell monolayers were rinsed with PBS and treated with trypsin–EDTA to detach the cells before their resuspension in fresh media. A subconfluent monolayer of BALB/3T3 clone A31 fibroblast cells was trypsinised, centrifuged at 1000 rpm for 5 min, resuspended in growth medium, and counted.
A cytotoxicity screening was carried out for both ILs (range […]), as well as DIA and Rhe (0.5–200 mg/mL). Briefly, BALB/3T3 clone A31 fibroblast cells were seeded in each well of 96-well plates at a seeding density of 6 × 10^3 cells/well for 24 h, until 60–70% confluence was reached. After 24 h, the medium was then removed from each well and replaced with DMEM containing the samples.
After 4 h of incubation, the media were removed, replaced with fresh medium containing 10% WST-1 reagent solution, and maintained for 4 h at 37° C with 5% CO2. Afterwards, formazan dye absorbance was quantified at 450 nm with the reference wavelength at 655 nm by using a multilabel reader (BioTek 800/TS, Thermo Scientific).

P. aeruginosa ATCC 27853 [3] = experiment: MIC determination (microdilution); format: cell-based, Pseudomonas aeruginosa
Description: A clinical isolate of S. aureus (W4) and the reference strain of P. aeruginosa ATCC 27853 were used in the study. For the preparation of stock cultures, bacterial strains were grown in Luria–Bertani broth (LB, Oxoid, Basingstoke, Hampshire, UK) until the late-log phase, subdivided into aliquots, and kept frozen at −80 °C until use. Identification and susceptibility testing of the S. aureus W4 strain were performed using MALDI-TOF (Bruker Daltonics, Bremen, Germany) and the BD Phoenix susceptibility testing system (BD, Milan, Italy), respectively.
The susceptibility of the bacterial strains to each of the tested compounds was assessed in terms of MIC values according to the standard microdilution method (Clinical and Laboratory Standards Institute–CLSI, 2018), with some modifications. Briefly, the bacteria were grown in LB broth until the exponential growth phase and then diluted in the same medium to reach a final density of 5 × 10^6 CFU/mL. A volume of 10 μL of the bacterial suspensions was added to 90 μL of LB in a 96-well plate in the absence (viability control) or presence of the test compound at different concentrations.

S. aureus W4 = experiment: Biofilm inhibition assay (crystal violet); format: cell-based, Staphylococcus aureus; settings: any of the concentrations tested (3.12, 6.25, 12.5 μg/mL)
Description: (§1) After overnight growth in LB, cultures of P. aeruginosa ATCC 27853 and S. aureus W4 were diluted 1:100 in LB or in 50% tryptone soy broth (TSB, Oxoid) supplemented with 0.25% glucose (Sigma), respectively. The bacterial suspensions were dispensed into flat-bottomed polystyrene 96-well microplates (Corning Costar, Lowell, MA, USA) in the presence of sub-MIC concentrations of Rhe and DIA (3.12, 6.25, and 12.5 μg/mL). A sample containing 0.8 DMSO % (corresponding to the highest concentration of DMSO tested) was used as a control. The microplates were incubated statically at 37 °C for 24 h, and the biofilm biomass was estimated by CV (Sigma-Aldrich) staining assay, as previously described.

P. aeruginosa ATCC 27853 [4] = experiment: Biofilm inhibition assay (crystal violet); format: cell-based, Pseudomonas aeruginosa; settings: any of the concentrations tested (3.12, 6.25, 12.5 μg/mL)
Description: as §1

[5] = Osmolality of eye drops (osmometer); format: physicochemical; settings: eye drops in CB
Description: Male New Zealand albino rabbits weighing approximately 2.6-3 Kg, kept in standard housing conditions, were used for in vivo studies. The animals were treated as prescribed in the guidelines of the European Community Council Directive 2010/63. The animal protocol was approved by the Italian Ministry of University and Research (authorisation n. 192/2019-PR). The eye drops were prepared in CB (200 mOsm/kg). […] (588 mOsm/kg). A suspension of plain DIA (0.34 M) in CB was used as a reference sample (230 mOsm/kg). The samples' osmolality was checked using a Roebling osmometer (calibrated with NaCl 300 mOsm/kg H2O).

Structure (SMILES): CC(=O)Oc1cccc2c1C(=O)c1c(OC(C)=O)cc(C(=O)O)cc1C2=O [DIA, diacerein]
- degradation of DIA ([1]; 0.018 M Bet6): 39%
- DIA degraded ([1]; 0.018 M Carn6 solution): 91%
- degradation of DIA ([1]; 0.04 M Bet6): 73%
- DIA degraded ([1]; 0.04 M Carn6 solution): 98%
- DIA preserved for 6 h ([1]; 0.27 M Bet6 solution (nanoaggregates)): 71%
- DIA preserved for 6 h ([1]; 0.35 M Bet6 solution (nanoaggregates)): 85%
- DIA not hydrolysed after 6 h ([1]; Carn6 nanoaggregates present (0.27 M)): 26%
- DIA not hydrolysed after 6 h ([1]; Carn6 nanoaggregates present (0.35 M)): 34%
- IC50 [2]: 116 µg/mL (≈ 316 µM)
- MIC (P. aeruginosa ATCC 27853 [3]; Pseudomonas aeruginosa, ATCC27853, planktonic cells, 24 h, 37 °C): > 50 µg/mL
- antibacterial effect (P. aeruginosa ATCC 27853 [3]; in words (discussion)): inactive
- biofilm formation (CV staining, OD 570 nm) (S. aureus W4): no significant effects
- biofilm formation (CV staining, OD 570 nm), difference vs control (P. aeruginosa ATCC 27853 [4]): not statistically significant
- osmolality [5]: 230 mOsm/kg
